Reference: publication PMC12644675, “The mass spectrometric intact transition epitope mapping method supports protein engineering of foldon trimer variants” (Scientific Reports, 2025)
“And” between values parts separate entries of the source, which are not always exact repeats. Equal entries are not always repeated. Where two headings read alike, the source gives them in different places.

Assays:
[1] = tested on: foldon homo-trimer; assay: ITEM-FIVE: collision-induced dissociation of foldon homo-trimer 5+ ions in the gas phase (nanoESI-MS); assay type: binding, T4 phage; conditions: for k#m0g (apparent kinetic constant of trimer dissociation) / TambΔS#m0g / ΔG#m0g (pseudo thermodynamic activation free energy of trimer dissociation) / ΔH#m0g (activation enthalpy of trimer dissociation): gas phase, two measurement series averaged; for k#m0g (apparent kinetic constant of trimer dissociation): CID ΔCV 0-50 V, linear extrapolation to ambient temperature (298 K), dimensionless, sprayed from 50 mM ammonium acetate pH 5.5, 0.1 µg/µl; for TambΔS#m0g: Tamb 298 K; for ΔG#m0g (pseudo thermodynamic activation free energy of trimer dissociation) / ΔH#m0g (activation enthalpy of trimer dissociation): extrapolated to ambient temperature
Text: ITEM-FIVE investigations started with electrospraying foldon-containing solutions and by setting the first mass filter (quadrupole) to selecting only foldon trimer ions for transmission into the instrument’s collision cell.
After mass filtering, this was the only remaining ion signal in the mass spectrum because the energy in the collision cell was too low to initiate complex dissociation. […] At 20 V the trimer ion signals were barely visible (Fig. 2C), leaving mass spectra with dominating ion signals of dimers and monomers. Finally, at 40 V, the only ion signals which remained visible in the mass spectra were those of the monomers (Fig. 2D). Independent measurement series of complex dissociations were recorded twice for each foldon variant (Tables S1–S7). […] Plotting the courses of normalized educt ion intensities as functions of ∆CV provided sigmoidal shaped curves with Boltzmann characteristics for all foldons (Fig. 3).
Approximating the tangent lines at the ∆CV50 values of all the Boltzmann curves (R^2 = 0.999 for all foldons; cf. Table S8) and upon transforming ∆CV values to reaction temperatures (applying formula (5) see Supplement) enabled drawing of Arrhenius plots (Fig. S11, applying formulas (1) and (5)) and Ellingham diagrams (Fig. S12, formulas (3), (4) and (5)). The values were calculated from formulas (2), (5) and (6). […] Likewise, the pseudo thermodynamic activation free energy values, followed in all Ellingham diagrams courses with almost parallel lining up of linear courses of all foldons when plotted against (according to formula (4)).
Mass spectra were acquired on a Synapt G2-S instrument (Waters MS-Technologies, Wilmslow, UK). Instrument calibration was performed with a sodium iodide solution with a concentration of 2 mg/ml, dissolved in isopropanol/water (50:50 v/v).
All mass spectra were acquired in positive ion mode applying a mass window from m/z 400 to m/z 8000. NanoESI measurements were performed with the following instrument settings: capillary voltage: 1.0–1.2 kV, sample cone voltage: 13 V source offset: 12 V, source gas flow: 0.0 ml/min, cone gas flow: 9 l/h, helium cell gas flow: 40 ml/min, IMS gas flow: 20.0 ml/min, trap collision voltage for nanoESI-MS analysis: 0–2 V, source temperature: 40 °C; trap gas flow: 2.0 ml/min, reflectron grid 1.449 kV. Data acquisition and processing were done with the MassLynx software version 4.1 (Waters MS-Technologies, Wilmslow, UK)[31].
ITEM-FIVE experiments started with isolating the quintuply charged foldon trimer ion signal as the respective precursor ion[31]. Then the collision cell voltage difference (ΔCV) in the trap cell was increased stepwise from: 0 V, to 2 V, 5 V, 7 V, 10 V, 12 V, 15 V, 20 V, 30 V, 40 V, and 50 V. At each ΔCV setting mass spectra were accumulated for 2 min and scans were combined using the MassLynx Software version 4.1 (Waters MS Technologies, Wilmslow, UK). Two measurement series were recorded. Mass spectrometry data have been deposited at the ProteomeXchange Consortium’s PRIDE repository[62] with the dataset identifier PXD064233.
From each mass spectrum one list with mass/intensity pair data was copied into a text file and then imported into the OriginPro 2017G software (64 bit) (OriginLab Corporation, Northampton, MA, USA) where it was further processed to eliminate baseline and noise signals. Then, the processed mass list data were converted to a Microsoft Access 2010 database from which data of pre-defined target masses were extracted with a threshold of ± 0.5 Da. Target masses were selected to represent the most characteristic ion signals in the respective mass spectrum: educts were represented by the trimer’s 5 + ion signal and products by the dimer’s 3 + ion signal and the monomer’s 2 + ion signal. […] Ion signal intensities were normalized by setting the sum of all remaining target mass ion signals to 100%. […]

[2] = Travelling wave ion mobility: drift times and CCS of homo-trimer 5+ ions; assay type: physicochemical; conditions: TWIM, nitrogen; for TWCCSN2 exp. (mean): 5+ trimer ion; for TWCCSN2 exp. (mean) / dt (mean): 50 mM ammonium acetate pH 5.5, c = 0.1 mg/ml, mean of two independent measurements; for dt (mean): centroided 5+ trimer ion signal; for FWHM: drift time peak of 5+ trimer ion, unit assumed
Protocol: Ion mobility measurements were performed using a Synapt G2-S instrument (Waters Corporation, Wilmslow, UK) equipped with a travelling wave ion mobility (TWIM) cell. Nitrogen was the neutral buffer gas for all TWIM experiments. All mass spectra were acquired in positive ion mode applying a mass window from m/z 400 to m/z 8000. Instrument settings were as follows: capillary voltage: 1.2 kV, sample cone voltage: 13 V, source offset: 12 V, source temperature: 40 °C, trap collision energy: 2.0 V, pusher: 1900 V, puller: 1370 V, reflectron grid 1.451 kV, source gas flow: 0.0 ml/min, cone gas flow: 9 l/h, nano flow gas pressure: 0.2 bar, helium cell gas flow: 140 ml/min, IMS gas flow: 50.0 ml/min, trap collision voltage: 2 V, trap gas flow: 5.0 ml/min, IMS wave velocity 1600 m/s, wave height: 30.0 V. Data acquisition, arrival time determinations, and processing were done with the MassLynx software version 4.1 (Waters MS-Technologies, Wilmslow, UK[31]. TWIM calibration was done with bovine serum albumin, myoglobin, cytochrome c, ubiquitin, and insulin using published CCS values (Table S18)[66],[67] and applying the published algorithms for logarithmic fits[66],[68] as well as for linear fits[69].

[3] = Travelling wave ion mobility CCS calibration: drift times and TWCCSN2 of calibrant protein ions; assay type: physicochemical; conditions: drift gas nitrogen, repeat determinations printed as separate rows; for dt exp.: in ms; for TWCCSN2: in Å2
Text: Supplement 41598_2025_28101_MOESM1_ESM.docx, table 25: Table S18: Drift times, experimentally determined CCS, and literature references of calibrant proteins. | column: CCS determinations ^a); CCS from literature ^a)

[4] = drift gas nitrogen, in Å2, cited from earlier work
Text: Supplement 41598_2025_28101_MOESM1_ESM.docx, table 25: Table S18: Drift times, experimentally determined CCS, and literature references of calibrant proteins. | column: CCS from literature ^a)

[5] = Boltzmann curve parameter, 5+ trimer ion, mean of two measurement series, Table S8
[6] = collision cell voltage difference at half dissociation of 5+ trimer ion, Boltzmann fit
[7] = calibrant ion z = 5, ion at m/z 2473.12
[8] = calibrant ion z = 5, ion at m/z 2473.14

For “H-Gly^1Tyr^2IPEAPRDGly^10QAYVRKAsp^17GEWVLLSTFL-OH [foldon 0, original T4 Fibritin foldon mini-protein of 27 amino acids, purchased, forms homo-trimers, reference compound]”, the ΔCV50 [1, 5] was 13.51, the ΔCV50 [1, 6] was 13.5 V and the “k#m0g (apparent kinetic constant of trimer dissociation)” value ([1]; 5+ trimer ion) was 3.61 × 10^8. For the same substance, the “TambΔS#m0g” value ([1]; 5+ trimer ion) was 9.56 kcal/mol, the “ΔG#m0g (pseudo thermodynamic activation free energy of trimer dissociation)” value ([1]; 5+ trimer ion) was 5.71 kcal/mol and the “ΔH#m0g (activation enthalpy of trimer dissociation)” value ([1]; 5+ trimer ion) was 15.3 kcal/mol. For the same substance, the “TWCCSN2 exp. (mean)” value [2] was 1160 Å^2, the “dt (mean)” value [2] was 10.8 ms and the FWHM [2] was 1.9 ms.
For serum albumin, the dt exp. ([3]; calibrant ion z = 15) is listed as 18.80, the TWCCSN2 ([3]; calibrant ion z = 15) is listed as 4310 and the “CCS from literature, CCS exp.” value ([4]; calibrant ion z = 15) is listed as 4490. The “CCS from literature, CCS exp.” value ([4]; calibrant ion z = 16) was 4470 and the “CCS from literature, CCS exp.” value ([4]; calibrant ion z = 17) was 4490.
With “H-Gly^1tyr^2IPEAPRDala^10QAYVRKphe^17GEWVLLSTFL-NH2 [foldon 2]” the “k#m0g (apparent kinetic constant of trimer dissociation)” value ([1]; 5+ trimer ion) was 3.60 × 10^9, the “TambΔS#m0g” value ([1]; 5+ trimer ion) was 9.03 kcal/mol and the “ΔG#m0g (pseudo thermodynamic activation free energy of trimer dissociation)” value ([1]; 5+ trimer ion) was 4.42 kcal/mol. The “ΔH#m0g (activation enthalpy of trimer dissociation)” value ([1]; 5+ trimer ion) was 13.5 kcal/mol, the “TWCCSN2 exp. (mean)” value [2] was 1169 Å^2 and the “dt (mean)” value [2] was 11.0 ms. For the same substance, the FWHM [2] was 1.5 ms.
With “H-Dip^2IPEAPRDala^10QAYVRKphe^17GEWVLLSTFL-NH2 [foldon 6, T4Ff variant without Gly1, Dip at position 2]” the ΔCV50 [1, 5] was 13.42, the ΔCV50 [1, 6] was 13.4 V and the “k#m0g (apparent kinetic constant of trimer dissociation)” value ([1]; 5+ trimer ion) was 3.47 × 10^8. For the same substance, the “TambΔS#m0g” value ([1]; 5+ trimer ion) was 10.1 kcal/mol, the “ΔG#m0g (pseudo thermodynamic activation free energy of trimer dissociation)” value ([1]; 5+ trimer ion) was 5.88 kcal/mol and the “ΔH#m0g (activation enthalpy of trimer dissociation)” value ([1]; 5+ trimer ion) was 16 kcal/mol. For the same substance, the “TWCCSN2 exp. (mean)” value [2] was 1177 Å^2, the “dt (mean)” value [2] was 11.3 ms and the FWHM [2] was 1.5 ms.
With “H-Tyr^2IPEAPRDala^10QAYVRKphe^17GEWVLLSTFL-NH2 [foldon 3]” the ΔCV50 [1, 5] was 11.63, the “k#m0g (apparent kinetic constant of trimer dissociation)” value ([1]; 5+ trimer ion) was 2.64 × 10^9 and the “TambΔS#m0g” value ([1]; 5+ trimer ion) was 8.99 kcal/mol. For the same substance, the “ΔG#m0g (pseudo thermodynamic activation free energy of trimer dissociation)” value ([1]; 5+ trimer ion) was 4.57 kcal/mol, the “ΔH#m0g (activation enthalpy of trimer dissociation)” value ([1]; 5+ trimer ion) was 13.6 kcal/mol and the “TWCCSN2 exp. (mean)” value [2] was 1164 Å^2. For the same substance, the “dt (mean)” value [2] was 10.9 ms and the FWHM [2] was 1.2 ms.
In the case of ubiquitin, the dt exp. ([3]; calibrant ion z = 4) is given as 11.75, the TWCCSN2 ([3]; calibrant ion z = 4) is given as 956 and the “CCS from literature, CCS exp.” value ([4]; calibrant ion z = 4) is given as 949. For the same substance, the “CCS from literature, CCS exp.” value ([4]; calibrant ion z = 5) was 1011.
In the case of insulin, the dt exp. ([3]; calibrant ion z = 3) is reported as 12.3 and 12.44, the TWCCSN2 ([3]; calibrant ion z = 3) is reported as 729 and 732 and the dt exp. ([3]; calibrant ion z = 4) is reported as 8.43 and 8.57. The TWCCSN2 ([3]; calibrant ion z = 4) was 865 and 868, the dt exp. ([3]; calibrant ion z = 5) was 7.19 and the TWCCSN2 ([3]; calibrant ion z = 5) was 1038.
For “H-Nal^2IPEAPRDala^10QAYVRKphe^17GEWVLLSTFL-NH2 [foldon 5, T4Ff variant without Gly1, Nal at position 2]”, the ΔCV50 [1, 5] was 12.25, the “k#m0g (apparent kinetic constant of trimer dissociation)” value ([1]; 5+ trimer ion) was 1.22 × 10^9 and the “TambΔS#m0g” value ([1]; 5+ trimer ion) was 9.56 kcal/mol. The “ΔG#m0g (pseudo thermodynamic activation free energy of trimer dissociation)” value ([1]; 5+ trimer ion) was 5.04 kcal/mol, the “ΔH#m0g (activation enthalpy of trimer dissociation)” value ([1]; 5+ trimer ion) was 14.6 kcal/mol and the “TWCCSN2 exp. (mean)” value [2] was 1169 Å^2. The “dt (mean)” value [2] was 11.0 ms and the FWHM [2] was 0.8 ms.
cytochrome c showed a dt exp. [3, 7] of 12.03, a dt exp. [3, 8] of 11.89 and a TWCCSN2 [3, 7] of 1204. The TWCCSN2 [3, 8] was 1199, the dt exp. ([3]; calibrant ion z = 8) was 10.23 and 10.37 and the TWCCSN2 ([3]; calibrant ion z = 8) was 1827 and 1835. The “CCS from literature, CCS exp.” value ([4]; calibrant ion z = 5) was 1146, the “CCS from literature, CCS exp.” value ([4]; calibrant ion z = 6, two literature values) was 1477 and 1490 and the “CCS from literature, CCS exp.” value ([4]; calibrant ion z = 7) was 1590.
For “H-Gly^1Tyr^2IPEAPRDala^10QAYVRKphe^17GEWVLLSTFL-NH2 [foldon 1, T4Ff variant with D-Ala10, D-Phe17 and C-terminal carboxamide]”, the ΔCV50 [1, 5] was 11.04, the ΔCV50 [1, 6] was 11.0 V and the “k#m0g (apparent kinetic constant of trimer dissociation)” value ([1]; 5+ trimer ion) was 6.61 × 10^9. For the same substance, the “TambΔS#m0g” value ([1]; 5+ trimer ion) was 8.44 kcal/mol, the “ΔG#m0g (pseudo thermodynamic activation free energy of trimer dissociation)” value ([1]; 5+ trimer ion) was 3.94 kcal/mol and the “ΔH#m0g (activation enthalpy of trimer dissociation)” value ([1]; 5+ trimer ion) was 12.4 kcal/mol. For the same substance, the “TWCCSN2 exp. (mean)” value [2] was 1172 Å^2, the “dt (mean)” value [2] was 11.1 ms and the FWHM [2] was 1.5 ms.
For “H-tyr^2IPEAPRDala^10QAYVRKphe^17GEWVLLSTFL-NH2 [foldon 4, T4Ff variant without Gly1, D-Tyr at position 2]”, the ΔCV50 [1, 5] was 12.26, the “k#m0g (apparent kinetic constant of trimer dissociation)” value ([1]; 5+ trimer ion) was 1.17 × 10^9 and the “TambΔS#m0g” value ([1]; 5+ trimer ion) was 9.27 kcal/mol. The “ΔG#m0g (pseudo thermodynamic activation free energy of trimer dissociation)” value ([1]; 5+ trimer ion) was 5.07 kcal/mol, the “ΔH#m0g (activation enthalpy of trimer dissociation)” value ([1]; 5+ trimer ion) was 14.3 kcal/mol and the “TWCCSN2 exp. (mean)” value [2] was 1164 Å^2. For the same substance, the “dt (mean)” value [2] was 10.9 ms and the FWHM [2] was 1.6 ms.
